Measurements as given in patent US20250389737A1, “FACTOR Xa REAGENT” (Instrumentation Laboratory Company, priority 2024, published 2025).
Where a name gives a salt, the structure may show the parent alone.

What was measured:
factor Xa [1] = target: T1, factor Xa (Homo sapiens, UniProt P00742); assay: chromogenic assay of the effects of guanidine sulfate and alkylated guanidines on factor Xa activity (FIG. 4); type: biochemical; settings: 6 nkat/mL factor Xa in 20 mM HEPES pH 7.5, 1.5 mM substrate S-2732, mAbs/min at 405 nm, dilution series in water
Description: In this experiment, the effects of guanidine sulfate and the guanidine derivatives: 1-methylguanidine sulfate, 1,1-dimethylguanidine sulfate, 1,1-diethylguanidine, and N-benzyl, N-methylguanidine sulfate were analyzed using a chromogenic assay. A number of dilutions were prepared in water with guanidine or a guanidine derivative of the type described herein. 40 μL of each of the guanidine or guanidine derivatives were mixed for 20 s to 60 s with 40 μL of 6 nkat/mL factor Xa diluted in 20 mM HEPES, pH 7.5 buffer. After an incubation period of 150 s to 180 s, 100 μL of the factor Xa chromogenic substrate S-2732™ (1.5 mM) was added to each of the guanidine and factor Xa mixtures and each mixture was chromogenically measured at 405 nm mAbs/min after a 20 s delay.

factor Xa [2] = target: T1, factor Xa; settings: 6 nkat/mL factor Xa in 20 mM Hepes pH 7.5, 1.5 mM substrate S-2732, 37° C., mAbs/min at 405 nm, concentrations in mM
Description: In this experiment, activity of factor Xa in the presence of guanidine sulfate and its derivatives (e.g., 1-methylguanidine sulfate, 1,1-dimethylguanidine sulfate, 1,1-diethylguanidine, N-benzyl, N-methylguanidine sulfate, 1,1,3,3-tetramethylgunidine and 1,1-dimethylbiguanide HCl) was evaluated using a chromogenic assay. In the experiment, each guanidine derivative was dissolved in deionized (DI) water to a final concentration of 100 mM. A number of such guanidine dilutions were prepared. Guanidine derivative levels in the solutions were tested in triplicate at 37° C. as follows: 40 μL (microliters) of each guanidine derivative level was incubated for 20 seconds(s) to 60 s before 40 μL of 6 nkat/mL factor Xa in 20 mM Hepes pH 7.5 buffer was added to the reaction. After an incubation period of 150 s to 180 s, 100 μL of 1.5 mM factor Xa chromogenic substrate S-2732™ was added to the reaction and milli-absorbance per minute (mAbs/min) at 405 nm (nanometers) was measured after a 20 s delay.

factor Xa [3] = target: T1, factor Xa; assay: chromogenic factor Xa activity in a plasma sample containing dimethylguanidine, 9:1 sample to factor Xa ratio (FIG. 7); type: biochemical; settings: 50 mM vs 25 mM dimethylguanidine, 1.5 mM S-2732, 37° C.
Description: In this experiment, 180 μL of a plasma sample containing dimethylguanidine (DMG) and 1.5 mM substrate S-2732™ were mixed with 20 μL of factor Xa (a 9:1 sample to factor Xa ratio). The activity of factor Xa was determined at 37° C. based on chromogenic activity of the substrate. The activity of factor Xa linearly correlates with the factor Xa concentration in the presence of dimethylguanidine. […] Thus, increasing the amount of dimethylguanidine in a sample reduces a rate of the reaction. In some implementations, dimethylguanidine can be added to a reaction at a concentration of up to about 500 mM.

factor Xa [4] = target: T1, factor Xa; assay: substrate turnover rates at different factor Xa levels, 1,1-dimethylguanidine compared with NaCl (FIG. 6); type: biochemical; settings: 22 mM 1,1-dimethylguanidine vs 33 mM NaCl, 1.5 mM S-2732, 37° C., 405 nm
Description: Guanidine derivatives modulate factor Xa enzymatic activity in a reaction, as explained previously, thereby slowing-down the reaction. As a result, greater amounts and/or concentrations of factor Xa can be used in a reaction when a guanidine derivative is incorporated into the reaction. In this experiment, factor Xa levels were tested in a reaction in triplicate at 37° C. as follows: 40 μL of factor Xa was incubated for 20 s to 60 s before 40 μL of 100 mM 1,1-dimethylguanidine or 150 mM NaCl in water was added to the reaction. After an incubation period of 150 s to 180 s, 100 μL of 1.5 mM factor Xa chromogenic substrate S-2732™ was added to the reaction and mAbs/min at 405 nm was measured after a 20 s delay. In FIG. 6, substrate turnover rates (e.g., coloring of the substrate) in the presence of 22 mM 1,1-dimethylguanidine 601 were compared to substrate turnover rates in the presence of 33 mM NaCl 602. As evident from FIG. 6, greater amounts and/or concentrations of factor Xa can be added to the reaction in the presence of 1,1-dimethylguanidine to produce the same substrate turnover rates relative to NaCl. […] Greater amounts and/or concentrations of factor Xa facilitate detection of factor Xa inhibitors or reversal of such inhibitors in an assay, as noted previously.

T1 sequence (P00742 235-488 limits assumed): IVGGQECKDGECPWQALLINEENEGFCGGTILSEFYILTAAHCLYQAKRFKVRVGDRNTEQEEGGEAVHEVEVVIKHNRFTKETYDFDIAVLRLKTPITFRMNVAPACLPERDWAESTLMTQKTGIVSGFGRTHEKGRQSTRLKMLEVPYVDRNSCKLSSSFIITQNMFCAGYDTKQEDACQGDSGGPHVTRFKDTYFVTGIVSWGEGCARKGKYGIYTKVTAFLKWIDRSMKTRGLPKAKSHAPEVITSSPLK
T1 sequence (P00742 41-179 partner limits assumed): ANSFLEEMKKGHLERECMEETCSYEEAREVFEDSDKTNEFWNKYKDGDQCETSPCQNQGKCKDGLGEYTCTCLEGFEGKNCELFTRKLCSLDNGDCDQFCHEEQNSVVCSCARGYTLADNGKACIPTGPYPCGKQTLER

Compound | extent of factor Xa inhibition (factor Xa [1]) | factor Xa activity plotted against guanidine derivative or NaCl concentration (factor Xa [2]) | other results
CCN(CC)C(=N)N.O=S(=O)(O)O [1,1-diethylguanidine sulfate] | largest extent of factor Xa inhibition | – | –
CN(C)C(=N)NC(=N)N [1,1-dimethyl-biguanide, reference compound] | – | modulate factor Xa dose-dependently, although less than 1-methylated guanidine sulfate | –
CN(C)C(=N)N.O=S(=O)(O)O [1,1-dimethylguanidine sulfate] | largest extent of factor Xa inhibition | – | –
CN(C)C(=N)N [1,1-dimethylguanidine] | – | – | rate of the factor Xa reaction (chromogenic activity) (factor Xa [3]): slows reaction of the factor Xa in a sample greater than 25 mM of dimethylguanidine; substrate turnover rates (reaction rate) relative to NaCl (factor Xa [4]): slowed-down
CNC(=N)N [1-methylguanidine sulfate] | reduced factor Xa inhibition as compared to the factor Xa inhibition of mixtures containing dialkylated guanidine derivatives | modulates factor Xa dose-dependently | –
CN(Cc1ccccc1)C(=N)N.O=S(=O)(O)O [N-benzyl N-methylguanidine sulfate] | reduced factor Xa inhibition as compared to the factor Xa inhibition of mixtures containing dialkylated guanidine derivatives | – | –
[Cl-].[Na+] [NaCl, reference compound] | – | activates factor Xa activity | –
N=C(N)N [guanidine sulfate] | least amount of reduction in factor Xa inhibition | modulate factor Xa dose-dependently, although less than 1-methylated guanidine sulfate | –
